Measured values taken from PubChem BioAssay AID248 (DTP/NCI, 2004).
Where “and” joins values, the source holds several entries; their conditions need not be identical. Equal values may be shown once. Toxic doses and inconclusive results are not listed. Rule as the data show it: active = T/C of 150% or more; inactive = T/C below 125%.

Test system: L1210 leukemia ip in BDF1 mice, survival T/C
Assay: NCI In Vivo Anticancer Drug Screen. Data for tumor model L1210 Leukemia (intraperitoneal) in B6D2F1 (BDF1) mice
Settings: endpoint: mean survival time, higher = longer survival
Summary of the method: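 Ratio derived from survival: compound-dosed mice over vehicle-dosed mice, all bearing a transplantable tumor.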

[1] = dose: 50.0 mg/kg/injection, schedule: Q01DX009 (ip), vehicle: saline
[2] = dose: 100.0 mg/kg/injection, schedule: Q01DX009 (ip), vehicle: saline
[3] = dose: 200.0 mg/kg/injection, schedule: Q01DX009 (ip), vehicle: saline
[4] = dose: 400.0 mg/kg/injection, schedule: Q01DX009 (ip), vehicle: saline
[5] = dose: 100.0 mg/kg/injection, schedule: Q04DX003 (ip), vehicle: saline
[6] = dose: 200.0 mg/kg/injection, schedule: Q04DX003 (ip), vehicle: saline
[7] = dose: 400.0 mg/kg/injection, schedule: Q04DX003 (ip), vehicle: saline
[8] = dose: 100.0 mg/kg/injection, schedule: Q01DX001 (ip), vehicle: saline
[9] = dose: 200.0 mg/kg/injection, schedule: Q01DX001 (ip), vehicle: saline
[10] = dose: 400.0 mg/kg/injection, schedule: Q01DX001 (ip), vehicle: saline
[11] = dose: 100.0 mg/kg/injection, schedule: Q04DX002 (ip), vehicle: Klucel (hydroxypropylcellulose) (HPC)
[12] = dose: 200.0 mg/kg/injection, schedule: Q04DX002 (ip), vehicle: Klucel (hydroxypropylcellulose) (HPC)
[13] = dose: 400.0 mg/kg/injection, schedule: Q04DX002 (ip), vehicle: Klucel (hydroxypropylcellulose) (HPC)

Measured: T/C

N#Cc1cnn2c(=O)[nH]cnc12
inactive: dose: 100.0 mg/kg/injection, schedule: Q01DX009 (ip), vehicle: saline sonified 95 % of control | dose: 100.0 mg/kg/injection, schedule: Q04DX003 (ip), vehicle: saline sonified 93 % of control | dose: 200.0 mg/kg/injection, schedule: Q01DX009 (ip), vehicle: saline sonified 91 % of control | dose: 200.0 mg/kg/injection, schedule: Q04DX003 (ip), vehicle: saline sonified 101 % of control | dose: 400.0 mg/kg/injection, schedule: Q04DX003 (ip), vehicle: saline sonified 95 % of control

COc1cc2c(cc1O)CCCCC2=O
inactive: [1] 92 % of control | [2] 104 % of control | dose: 100.0 mg/kg/injection, schedule: Q04DX003 (ip), vehicle: Klucel (hydroxypropylcellulose) (HPC) 97 % of control | [3] 119 % of control | dose: 200.0 mg/kg/injection, schedule: Q04DX003 (ip), vehicle: Klucel (hydroxypropylcellulose) (HPC) 102 % of control | dose: 400.0 mg/kg/injection, schedule: Q04DX003 (ip), vehicle: Klucel (hydroxypropylcellulose) (HPC) 94 % of control

O=S(O)c1ccccc1
inactive: [2] 96 % of control | [3] 105 % of control | [4] 103 % of control

CC(O)Cn1cnc2c1c(=O)n(C)c(=O)n2C (configuration not stated)
inactive: [2] 93 % of control | [5] 95 % of control | [3] 95 % of control | [6] 95 % of control | [7] 94 % of control

CC(Br)C(=O)NCC(=O)NCC(=O)O (configuration not stated)
inactive: [2] 100 % of control | [5] 101 % of control | [3] 89 % of control | [6] 101 % of control | [4] 90 % of control | [7] 97 % of control

CCOC(=O)c1cc2c3n(c1=O)CCCC3C(c1ccccn1)OC2=O (configuration not stated)
inactive: [8] 92 % of control | [9] 98 % of control | [10] 103 % of control

CC1=CCC(O)(C(C)C)CC1 (configuration not stated)
inactive: [2] 93 % of control | [3] 93 % of control | [4] 95 % of control

COc1ccc(C(CC(=O)c2ccc(C)cc2)Sc2ccccc2N)cc1 (configuration not stated)
inactive: dose: 100.0 mg/kg/injection, schedule: Q01DX005 (ip), vehicle: Klucel (hydroxypropylcellulose) (HPC) 108 % of control | dose: 100.0 mg/kg/injection, schedule: Q01DX009 (ip), vehicle: Klucel (hydroxypropylcellulose) (HPC) 94 % of control | [11] 98 % of control | dose: 200.0 mg/kg/injection, schedule: Q01DX005 (ip), vehicle: Klucel (hydroxypropylcellulose) (HPC) 89 % of control | dose: 200.0 mg/kg/injection, schedule: Q01DX009 (ip), vehicle: Klucel (hydroxypropylcellulose) (HPC) 97 % of control | [12] 103 % of control | dose: 400.0 mg/kg/injection, schedule: Q01DX005 (ip), vehicle: Klucel (hydroxypropylcellulose) (HPC) 86 % of control | dose: 400.0 mg/kg/injection, schedule: Q01DX009 (ip), vehicle: Klucel (hydroxypropylcellulose) (HPC) 94 % of control | [13] 103 % of control

OC1C#CCCCCC(O)C#CCCCC1 (configuration not stated)
inactive: dose: 18.75 mg/kg/injection, schedule: Q01DX009 (ip), vehicle: saline 97 % of control | dose: 37.5 mg/kg/injection, schedule: Q01DX009 (ip), vehicle: saline 95 % of control | dose: 37.5 mg/kg/injection, schedule: Q04DX003 (ip), vehicle: acetone 100 % of control | dose: 75.0 mg/kg/injection, schedule: Q01DX009 (ip), vehicle: saline 97 % of control | dose: 75.0 mg/kg/injection, schedule: Q04DX003 (ip), vehicle: acetone 97 % of control | dose: 150.0 mg/kg/injection, schedule: Q04DX003 (ip), vehicle: acetone 92 % of control

CNC(=O)n1ncc2ccc([N+](=O)[O-])cc21
inactive: [8] 107 % of control | [9] 107 % of control | [10] 102 % of control

Nc1ccc(OCc2nc(N)nc(N)c2-c2ccc(Cl)cc2)cc1
inactive: dose: 100.0 mg/kg/injection, schedule: Q01DX001 (ip), vehicle: Klucel (hydroxypropylcellulose) (HPC) 102 % of control | dose: 200.0 mg/kg/injection, schedule: Q01DX001 (ip), vehicle: Klucel (hydroxypropylcellulose) (HPC) 105 % of control | dose: 400.0 mg/kg/injection, schedule: Q01DX001 (ip), vehicle: Klucel (hydroxypropylcellulose) (HPC) 96 % of control

COc1ccc(Cc2nccc3c(OC)c(OC)ccc23)cc1OC
inactive: dose: 25.0 mg/kg/injection, schedule: Q01DX009 (ip), vehicle: saline 98 % of control | dose: 25.0 mg/kg/injection, schedule: Q04DX003 (ip), vehicle: saline 107 % of control | [1] 102 % of control | dose: 50.0 mg/kg/injection, schedule: Q04DX003 (ip), vehicle: saline 93 % of control | [2] 93 % of control | [5] 96 % of control and 103 % of control | [6] 86 % of control

Cc1[nH]c2ccc(N=CN(C)C)cc2c1C
inactive: dose: 100.0 mg/kg/injection, schedule: Q04DX002 (ip), vehicle: saline with Tween-80 94 % of control

C=Cc1cc[n+](CCCCC[n+]2ccc(C=C)cc2)cc1
inactive: dose: 100.0 mg/kg/injection, schedule: Q01DX001 (ip), vehicle: carboxymethylcellulose (CMC) 96 % of control | dose: 200.0 mg/kg/injection, schedule: Q01DX001 (ip), vehicle: carboxymethylcellulose (CMC) 98 % of control | dose: 400.0 mg/kg/injection, schedule: Q01DX001 (ip), vehicle: carboxymethylcellulose (CMC) 93 % of control

Cc1ncc(CO)c(Cc2ccc(N(C)C)cc2)c1O
inactive: dose: 100.0 mg/kg/injection, schedule: Q04DX002 (ip), vehicle: saline 88 % of control | dose: 200.0 mg/kg/injection, schedule: Q04DX002 (ip), vehicle: saline 103 % of control | dose: 400.0 mg/kg/injection, schedule: Q04DX002 (ip), vehicle: saline 95 % of control

Cc1c(C)c(C)c(CN2CC(=O)c3ccccc3C2=O)c(C)c1C
inactive: [11] 89 % of control | [12] 104 % of control | [13] 89 % of control

O=c1[nH]nnc2nc(CCCc3ccccc3)[nH]c12
inactive: dose: 100.0 mg/kg/injection, schedule: Q01DX001 (ip), vehicle: saline with Tween-80 98 % of control | dose: 200.0 mg/kg/injection, schedule: Q01DX001 (ip), vehicle: saline with Tween-80 111 % of control | dose: 400.0 mg/kg/injection, schedule: Q01DX001 (ip), vehicle: saline with Tween-80 104 % of control

Cc1nc(N)c(N)nc1C
inactive: dose: 12.5 mg/kg/injection, schedule: Q01DX009 (ip), vehicle: saline with Tween-80 112 % of control | dose: 25.0 mg/kg/injection, schedule: Q01DX009 (ip), vehicle: saline with Tween-80 101 % of control | dose: 25.0 mg/kg/injection, schedule: Q04DX003 (ip), vehicle: saline with Tween-80 106 % of control | dose: 50.0 mg/kg/injection, schedule: Q01DX009 (ip), vehicle: saline with Tween-80 101 % of control | dose: 50.0 mg/kg/injection, schedule: Q04DX003 (ip), vehicle: saline with Tween-80 101 % of control
